Source: patent publication US11767310B2, “Nicotinamide RIPK1 inhibitors” (AbbVie Inc., priority 2021, dated 2023)
Read-outs that look alike come from different tables or passages of the source.

How the values were obtained:
Experiment in all cases: Kinase binding screen
Settings in all cases: read-out: Percent Control at 100 nM Compound Concentration
[1] = target: MST3 (Homo sapiens (Human), UniProt Q9Y6E0)
[2] = target: MAP4K4 (Homo sapiens (Human), UniProt O95819)
[3] = target: PYK2 (Homo sapiens (Human), UniProt Q14289)
PYK2, sequence (Q14289 whole entry): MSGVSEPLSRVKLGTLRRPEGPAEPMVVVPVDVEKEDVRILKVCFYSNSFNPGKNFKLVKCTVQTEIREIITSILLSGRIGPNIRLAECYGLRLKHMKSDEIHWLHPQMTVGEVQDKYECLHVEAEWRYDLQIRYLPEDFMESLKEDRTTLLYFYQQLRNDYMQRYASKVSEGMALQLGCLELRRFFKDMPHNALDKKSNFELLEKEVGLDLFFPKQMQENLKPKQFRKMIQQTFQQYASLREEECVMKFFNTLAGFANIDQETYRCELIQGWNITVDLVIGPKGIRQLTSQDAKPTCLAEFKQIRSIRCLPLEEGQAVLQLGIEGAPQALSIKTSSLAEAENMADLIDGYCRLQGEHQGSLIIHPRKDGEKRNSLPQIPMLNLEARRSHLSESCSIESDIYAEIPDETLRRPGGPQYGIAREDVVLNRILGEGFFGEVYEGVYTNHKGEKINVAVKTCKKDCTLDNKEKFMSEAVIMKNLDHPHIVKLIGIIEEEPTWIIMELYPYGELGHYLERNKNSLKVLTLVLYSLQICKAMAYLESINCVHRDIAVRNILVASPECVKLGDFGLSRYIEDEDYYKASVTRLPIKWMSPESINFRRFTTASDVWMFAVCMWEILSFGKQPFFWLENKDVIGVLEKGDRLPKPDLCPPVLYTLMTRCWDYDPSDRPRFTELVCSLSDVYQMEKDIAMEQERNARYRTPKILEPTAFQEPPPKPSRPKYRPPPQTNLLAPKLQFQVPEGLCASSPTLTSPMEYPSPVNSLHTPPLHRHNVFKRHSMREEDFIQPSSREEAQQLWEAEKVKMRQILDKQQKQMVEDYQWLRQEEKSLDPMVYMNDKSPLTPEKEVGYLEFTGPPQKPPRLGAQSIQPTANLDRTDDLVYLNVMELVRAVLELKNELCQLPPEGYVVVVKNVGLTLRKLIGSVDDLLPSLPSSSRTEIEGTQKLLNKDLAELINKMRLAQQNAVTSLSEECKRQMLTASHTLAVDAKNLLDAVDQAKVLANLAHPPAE

[4] = target: SBK1 (Homo sapiens (Human), UniProt Q52WX2)
SBK1, sequence (Q52WX2 whole entry): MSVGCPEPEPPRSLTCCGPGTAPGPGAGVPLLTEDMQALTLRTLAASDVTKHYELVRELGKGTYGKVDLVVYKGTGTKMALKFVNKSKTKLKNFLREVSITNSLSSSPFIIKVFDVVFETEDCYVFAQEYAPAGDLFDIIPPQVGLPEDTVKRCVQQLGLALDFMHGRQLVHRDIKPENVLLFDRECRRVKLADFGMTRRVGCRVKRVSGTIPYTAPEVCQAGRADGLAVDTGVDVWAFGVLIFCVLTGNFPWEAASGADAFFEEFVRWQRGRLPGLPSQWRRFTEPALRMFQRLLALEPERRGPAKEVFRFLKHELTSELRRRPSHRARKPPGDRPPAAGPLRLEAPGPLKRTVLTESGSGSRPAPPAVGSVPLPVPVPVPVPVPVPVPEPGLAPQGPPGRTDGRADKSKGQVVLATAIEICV

[5] = target: RIOK3 (Homo sapiens (Human), UniProt O14730)
[6] = target: ACVR1 (Homo sapiens (Human), UniProt Q04771)
[7] = target: NEK2 (Homo sapiens (Human), UniProt P51955)
[8] = target: MAPKAPK2 (Homo sapiens (Human), UniProt P49137)
[9] = target: RPS6KA4(Kin.Dom.2-C-terminal) (Homo sapiens (Human), UniProt O75676)
[10] = target: TYRO3 (Homo sapiens (Human), UniProt Q06418)
[11] = target: ABL1(F317L)-phosphorylated (Homo sapiens (Human), UniProt P00519, F317L)
[12] = target: LRRK2(G2019S) (Homo sapiens (Human), UniProt Q5S007, G2019S)
[13] = target: PIK3CA(C420R) (Homo sapiens (Human), UniProt P42336, C420R)
[14] = target: MY03B (Homo sapiens (Human), UniProt Q8WXR4)
[15] = target: KIT(V559D,T670I) (Homo sapiens (Human), UniProt P10721, T670I/V559D)
[16] = target: BRAF(V600E) (Homo sapiens (Human), UniProt P15056, V600E)
[17] = target: TNK2 (Homo sapiens (Human), UniProt Q07912)
[18] = target: YANK1 (Homo sapiens (Human), UniProt Q8WU08)
YANK1, sequence (Q8WU08 whole entry): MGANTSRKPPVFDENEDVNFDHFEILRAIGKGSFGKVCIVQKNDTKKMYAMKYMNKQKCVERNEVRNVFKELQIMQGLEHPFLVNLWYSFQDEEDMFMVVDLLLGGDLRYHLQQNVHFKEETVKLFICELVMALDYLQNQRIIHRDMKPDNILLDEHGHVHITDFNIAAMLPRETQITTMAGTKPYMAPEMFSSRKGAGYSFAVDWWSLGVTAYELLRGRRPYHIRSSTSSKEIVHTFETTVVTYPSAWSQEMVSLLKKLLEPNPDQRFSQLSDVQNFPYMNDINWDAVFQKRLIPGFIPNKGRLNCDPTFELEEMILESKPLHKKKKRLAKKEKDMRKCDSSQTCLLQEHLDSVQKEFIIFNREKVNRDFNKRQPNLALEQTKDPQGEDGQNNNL

[19] = target: KIT (Homo sapiens (Human), UniProt P10721)
[20] = target: RIPK2 (Homo sapiens (Human), UniProt O43353)
[21] = target: PRKCE (Homo sapiens (Human), UniProt Q02156)
[22] = target: EPHA1 (Homo sapiens (Human), UniProt P21709)
EPHA1, sequence (P21709 26-976): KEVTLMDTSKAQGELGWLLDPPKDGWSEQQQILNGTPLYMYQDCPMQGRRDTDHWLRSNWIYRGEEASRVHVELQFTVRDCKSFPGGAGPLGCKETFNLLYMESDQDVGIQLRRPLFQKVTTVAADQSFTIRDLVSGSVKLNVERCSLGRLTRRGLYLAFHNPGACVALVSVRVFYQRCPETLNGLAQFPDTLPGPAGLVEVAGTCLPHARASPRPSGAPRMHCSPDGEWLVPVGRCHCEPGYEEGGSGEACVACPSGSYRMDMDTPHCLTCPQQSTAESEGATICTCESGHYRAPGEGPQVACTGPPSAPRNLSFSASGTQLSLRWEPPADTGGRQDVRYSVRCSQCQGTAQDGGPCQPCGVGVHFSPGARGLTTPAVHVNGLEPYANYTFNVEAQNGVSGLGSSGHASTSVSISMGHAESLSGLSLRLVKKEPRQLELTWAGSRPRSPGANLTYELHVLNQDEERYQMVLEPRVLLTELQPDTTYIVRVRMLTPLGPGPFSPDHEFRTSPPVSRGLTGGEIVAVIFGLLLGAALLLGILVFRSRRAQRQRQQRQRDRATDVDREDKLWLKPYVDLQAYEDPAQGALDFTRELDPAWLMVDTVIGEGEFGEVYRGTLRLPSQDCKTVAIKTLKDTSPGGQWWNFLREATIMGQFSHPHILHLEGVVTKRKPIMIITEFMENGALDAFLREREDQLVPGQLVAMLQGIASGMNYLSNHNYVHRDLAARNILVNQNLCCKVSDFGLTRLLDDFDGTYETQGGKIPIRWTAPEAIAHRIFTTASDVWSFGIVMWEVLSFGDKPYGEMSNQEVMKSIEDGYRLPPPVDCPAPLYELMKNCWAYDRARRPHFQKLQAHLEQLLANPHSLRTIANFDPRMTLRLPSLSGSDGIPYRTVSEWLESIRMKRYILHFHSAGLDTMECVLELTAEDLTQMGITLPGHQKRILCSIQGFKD

[23] = target: PCTK2 (Homo sapiens (Human), UniProt Q00537)
PCTK2, sequence (Q00537 whole entry): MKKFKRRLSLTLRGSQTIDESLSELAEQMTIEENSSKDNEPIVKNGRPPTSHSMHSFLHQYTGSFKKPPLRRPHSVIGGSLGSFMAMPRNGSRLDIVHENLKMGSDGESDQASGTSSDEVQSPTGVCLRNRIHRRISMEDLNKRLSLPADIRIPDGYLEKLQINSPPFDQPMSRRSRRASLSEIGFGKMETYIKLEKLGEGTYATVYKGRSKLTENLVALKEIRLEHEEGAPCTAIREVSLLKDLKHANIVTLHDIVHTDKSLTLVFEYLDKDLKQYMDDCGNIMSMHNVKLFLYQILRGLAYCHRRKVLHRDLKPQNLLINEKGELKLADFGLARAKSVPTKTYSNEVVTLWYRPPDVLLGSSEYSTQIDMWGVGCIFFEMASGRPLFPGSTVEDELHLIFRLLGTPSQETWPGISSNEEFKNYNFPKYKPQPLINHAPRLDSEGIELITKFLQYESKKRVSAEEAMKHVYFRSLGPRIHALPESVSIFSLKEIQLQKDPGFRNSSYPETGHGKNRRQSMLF

[24] = target: GSK3B (Homo sapiens (Human), UniProt P49841)
[25] = target: ERK5 (Homo sapiens (Human), UniProt Q13164)
[26] = target: ANKK1 (Homo sapiens (Human), UniProt Q8NFD2)
[27] = target: CSNK1A1L (Homo sapiens (Human), UniProt Q8N752)
[28] = target: PFTK1 (Homo sapiens (Human), UniProt O94921)
PFTK1, sequence (O94921 whole entry): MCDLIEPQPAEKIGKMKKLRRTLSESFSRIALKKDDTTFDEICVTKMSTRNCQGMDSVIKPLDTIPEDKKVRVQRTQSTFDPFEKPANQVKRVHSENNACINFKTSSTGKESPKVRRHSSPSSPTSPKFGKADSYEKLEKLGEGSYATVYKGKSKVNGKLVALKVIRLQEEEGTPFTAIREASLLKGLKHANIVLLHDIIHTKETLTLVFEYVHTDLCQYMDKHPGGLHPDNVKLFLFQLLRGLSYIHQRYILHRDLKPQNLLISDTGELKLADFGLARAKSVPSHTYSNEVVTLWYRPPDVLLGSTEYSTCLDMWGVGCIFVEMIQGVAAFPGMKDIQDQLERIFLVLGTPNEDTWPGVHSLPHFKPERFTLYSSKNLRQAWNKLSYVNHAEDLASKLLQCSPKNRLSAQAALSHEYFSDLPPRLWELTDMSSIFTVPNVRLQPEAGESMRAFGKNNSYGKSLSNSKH

Measured: remaining activity at 0.1 µM

MAP4K4, sequence (O95819 whole entry): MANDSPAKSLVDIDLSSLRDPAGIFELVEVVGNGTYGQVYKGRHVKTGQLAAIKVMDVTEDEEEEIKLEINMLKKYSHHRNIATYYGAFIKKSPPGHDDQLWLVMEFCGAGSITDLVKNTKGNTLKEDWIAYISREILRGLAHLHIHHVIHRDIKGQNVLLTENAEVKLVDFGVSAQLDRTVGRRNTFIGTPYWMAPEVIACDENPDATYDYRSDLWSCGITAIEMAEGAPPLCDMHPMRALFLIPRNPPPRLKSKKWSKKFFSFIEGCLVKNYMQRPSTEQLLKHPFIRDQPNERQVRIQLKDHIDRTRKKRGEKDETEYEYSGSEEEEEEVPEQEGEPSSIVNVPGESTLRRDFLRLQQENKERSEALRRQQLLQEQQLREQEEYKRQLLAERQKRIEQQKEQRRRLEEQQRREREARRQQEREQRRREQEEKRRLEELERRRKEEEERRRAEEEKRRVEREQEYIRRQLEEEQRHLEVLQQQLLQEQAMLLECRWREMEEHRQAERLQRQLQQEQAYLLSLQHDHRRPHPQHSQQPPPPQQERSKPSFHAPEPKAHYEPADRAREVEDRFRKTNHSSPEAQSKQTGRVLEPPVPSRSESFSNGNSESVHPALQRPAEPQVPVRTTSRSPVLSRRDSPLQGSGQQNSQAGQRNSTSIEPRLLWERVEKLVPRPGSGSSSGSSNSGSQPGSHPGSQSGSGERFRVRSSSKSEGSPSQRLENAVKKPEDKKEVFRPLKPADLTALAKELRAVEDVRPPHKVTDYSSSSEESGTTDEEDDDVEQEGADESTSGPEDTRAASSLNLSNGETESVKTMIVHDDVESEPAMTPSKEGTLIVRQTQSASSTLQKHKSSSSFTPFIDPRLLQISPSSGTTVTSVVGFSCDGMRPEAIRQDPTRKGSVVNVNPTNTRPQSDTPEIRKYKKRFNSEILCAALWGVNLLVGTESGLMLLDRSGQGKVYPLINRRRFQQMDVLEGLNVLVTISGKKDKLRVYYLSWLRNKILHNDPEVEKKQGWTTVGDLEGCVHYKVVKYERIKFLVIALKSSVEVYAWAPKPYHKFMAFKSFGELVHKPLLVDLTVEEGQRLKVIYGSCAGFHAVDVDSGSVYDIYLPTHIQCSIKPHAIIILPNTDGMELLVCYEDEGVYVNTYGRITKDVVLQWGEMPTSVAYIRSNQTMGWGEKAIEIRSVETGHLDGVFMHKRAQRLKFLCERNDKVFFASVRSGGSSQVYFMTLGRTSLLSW

CN(C[C@@H](O)Cc1ccccc1)C(=O)c1cncc(C#Cc2cnn(C(F)F)c2)c1 [Example 2, (S)-5-((1-(difluoromethyl)-1H-pyrazol-4-yl)ethynyl)-N-(2-hydroxy-3-phenylpropyl)-N-methylnicotinamide]
82%: [11]; ABL1(F317L)-phosphorylated
99%: [10]; TYRO3
100%: [1]; MST3 | [3]; PYK2 | [5]; RIOK3 | [6]; ACVR1 | [7]; NEK2 | [8]; MAPKAPK2 | [12]; LRRK2(G2019S) | [17]; TNK2 | [18]; YANK1 | [19]; KIT | [20]; RIPK2 | [22]; EPHA1 | [23]; PCTK2 | [24]; GSK3B | [25]; ERK5 | [26]; ANKK1 | [27]; CSNK1A1L | [28]; PFTK1
92%: [2]; MAP4K4
97%: [4]; SBK1 | [9]; RPS6KA4(Kin.Dom.2-C-terminal) | [15]; KIT(V559D,T670I) | [16]; BRAF(V600E)
72%: [21]; PRKCE
83%: [13]; PIK3CA(C420R)
95%: [14]; MY03B

CN(C[C@H](Cc1ccccc1)OP(=O)(O)O)C(=O)c1cncc(C#Cc2cnn(C(F)F)c2)c1 [Example 19, (S)-1-(5-((1-(difluoromethyl)-1H-pyrazol-4-yl)ethynyl)-N-methylnicotinamido)-3-phenylpropan-2-yl dihydrogen phosphate]
88%: [11]
68%: [21]
98%: [24]
95%: [2] | [4]
100%: [1] | [3] | [5] | [6] | [7] | [8] | [9] | [10] | [15] | [17] | [18] | [20] | [22] | [23] | [25] | [26] | [28]
99%: [19]
93%: [12]
86%: [13]
79%: [14]
97%: [16] | [27]
